The subject of data set [1] is L3055 cells. The experiment in a line: Caspase activity (FAM-VAD-FMK, FACS). The format is cell-based. The settings on record: single dose for 24 hours; fluoxetine 10 μM, paroxetine 10 μM, citalopram 100 μM. How it is done:
Caspase activity was detected using the CaspaTag Caspase Activity Kit (Intergen, Oxford, UK). Cells cultured under the conditions indicated below were harvested into 300 μl of culture medium at a cell density of 10^6cells/ml, followed by the addition of […] of a 30×working solution of FAM-VAD-FMK (a carboxy fluorescent tagged caspase inhibitor) (Intergen Co., USA). Cells were then incubated for 1 hr at 37° C. under 5% CO2 while protecting the tubes from light. At the end of the incubation, they were washed twice in 2 ml of 1×washing buffer, followed by addition of 2 μl of PI to distinguish dead cells from live cells, then analysed on an EPICS XL-MCL flow cytometer or by confocal microscopy. For the latter, treated cells were harvested into 300 μl of culture medium containing 10 μl of FAM-VAD-FMK before incubating for 1 hr under the conditions described above. Next, 1.5 μl of Hoechst 33342 stain was added for 5 min, and cells were washed twice in 2 ml of 1×washing buffer following the addition of 1 μl of PI.

For data set [2], the system named is L3055 cells. Briefly: Syto 16 / propidium iodide staining (viable, apoptotic, necrotic). The format is cell-based. The procedure:
Changes in the viability of cells cultured under conditions indicated below were quantified by assessment of forward and 90° (side) light scatter of cells as previously described (Dive C, et al. Biochimica Biophysica Acta (1992); 1133:275-285) using an EPICS XL-MCL flow cytometer (Beckman Coulter, Miami, Fla., USA). Prior to analysis, cells were harvested into polythene FACS tubes, and fixed at 4° C. in 400 μl of FACS buffer [PBS with 5% NGS and 2% Formaldehyde] (BDH/MERCK). Cells were gated in two populations (viable and dead) according to their forward and side light scatter. Viability was expressed as a percentage of the total number of cells residing in the viable and non-viable gates. Cells were also analysed according to Schuurhuis et al (Schuurhuis G J, et al. Exp. Haematol. (1997); 25:754-759) in order to assess the percentages within treated populations of those that were viable, apoptotic, or necrotic. Syto 16 was added at a concentration of 250 nM in PBS to 500,000 cells and incubated at RT for 30 min, at which time 5 μg/ml propidium iodide (PI) was added. Samples were then analysed immediately by FACS and a 2D plot generated of syto 16 fluorescence versus PI fluorescence: syto 16 is taken up only by viable cells whereas Pi exclusively enters necrotic cells—syto 16^−ve/PI^−ve cells are deemed apoptotic.

The subject of data set [3] is actively cycling tonsilar B cells. Briefly: DNA synthesis in actively cycling tonsilar B cells. The class given is cell-based. To be noted: overnight fluoxetine up to 20 μM after 2 days stimulation with SAC (± CD40L) or PMA (± ionomycin).
For data set [4], the system named is L3055 cells. The experiment in a line: Intracellular free Ca2+. The class given is cell-based. The text has this: The increase in intracellular free Ca^2+ is known to be an important step in the induction of apoptosis.
Data set [5] has as its system non-BL lines Nalm-6, RPMI 8226, Jurkat, J10, and CEM. The experiment in a line: DNA synthesis (3H-Thymidine incorporation) in non-BL lines. The format is cell-based. The settings on record: data not shown.
Data set [6] concerns L3055 cells. The experiment in a line: Cell cycle analysis (propidium iodide, flow cytometry). The class given is cell-based. To be noted: 24 hr; each at its maximal concentration (5-HT 150 μM, fluoxetine 10 μM, anti-μ chain antibody 10 μg/ml). How it is done:
Cells cultured under conditions indicated below were harvested into 100 μl of 1×PBS followed by 400 μl cell cycle buffer containing Triton X-100 and propidium iodide and left to incubate at 4° C. for 1 hr to allow staining of DNA. The degree of fluorescence emitted by bound PI is directly proportional to the amount of DNA in each cell and was measured by flow cytometry as previously described (MacDonald I, et al. Blood (1996); 87:1147-1154). Results are expressed as percentage of viable cells residing in each phase of the cycle.

The test system of data set [7] is biopsylike BL cells. Briefly: PARP-1 cleavage. The format is cell-based. The settings on record: 20 μM fluoxetine.
Data set [8] deals with L3055 BL cells. Briefly: TUNEL DNA strand breaks, FACS. The settings on record: fluoxetine 20 μM, 17 h, 10^6/ml; Means ± SE of 3; control 17.8 ± 3.7. The class given is cell-based. The text has this:
Neither BL cells nor their normal germinal centre B cell equivalents tended to produce the extensive “DNA ladders” that can be seen as a result of DNA fragmentation when other cells (e.g. thymocytes) undergo apoptosis.

Data set [9] relates to L3055 BL cells. Briefly: Annexin V binding (phosphatidylserine exposure), FACS. The format is cell-based. The settings on record: fluoxetine 20 μM, 17 h, 10^6/ml, Means ± SE of 3. The source says:
Annexin V binding to phosphatidylserine exposed on the outer leaflet of cells to signal for phagocytic engulfment is another commonly used measure of programmed death although caution should be applied when using as a sole indicator for assessing apoptosis in B cells.

Data set [10] relates to normal peripheral blood mononuclear cells (PBMC). The settings on record: 24 h. The source says: Patients on SSRI's for depression sustain their circulating levels for months on repeated administrations. Also, circulating levels are believed to represent a gross underestimation of the accumulation of SSRI in body tissues. The lymphoma are, by definition, tumours of lymphoid tissues (e.g. lymph nodes).

Data set [11] deals with biopsylike BL cells. The experiment in a line: Real-time RT-PCR gene expression. The class given is cell-based. To be noted: data not shown. The text has this: BL is characterised by translocations of one c-myc allele to one of the immunoglobulin loci and the extraordinarily high growth rate that characterises these tumours reflects the pro-proliferative actions of the translocated gene. Despite its hallmark translocation to immunoglobulin loci, the BL-associated constitutive expression of c-myc remains dependent on the binding of the recognised c-myc transcription factor Nm23-H2 to a PuF site within the regulatory sequence of the translocated gene.

In data set [12] the test system is L3055 BL cells. Briefly: DNA synthesis by [3H]-thymidine incorporation in L3055 cells. The format is cell-based. How it is done: DNA synthesis was determined by measuring ^3H-thymidine ([^3H]Tdr; Amersham, UK) incorporation into cellular DNA. Cells were cultured in 200 μL of supplemented medium at densities and for times indicated below in flat-bottomed, 96-well tissue culture plates (Becton Dickinson, Oxford, U K) then pulsed for the final 4 h with 50 μl of 10 μCi/ml [^3H]Tdr before harvesting on a Skatron cell harvester (Helis Bio Ltd, Newmarket, UK).

This is an account of results in US20050182002A1, “Agents which interact with a serotonin transporter for the treatment of cancer” (priority 2002, published 2005).

Like-named read-outs stand apart in the source and are kept apart here.

On to `CNCCC(Oc1ccc(C(F)(F)F)cc1)c1ccccc1` (stereo not shown) [fluoxetine], for which the “effect on number of cells showing caspase activity (in words)” value in the data set on L3055 cells [1] is given as “significant effect on the numbers of cells showing caspase activity”. Besides, the “lymphoma cells entering apoptosis” value in the data set on L3055 cells [2] (fluoxetine 10-15 μM, 24 hours) was “about 40%”. Moreover, in the data set on L3055 cells [2] (increasing concentrations, 24 hr), the “number of viable cells (syto 16+ve/PI−ve) (in words)” value is “directly drove the lymphoma cells to die”. Besides, the “inhibition of DNA synthesis in actively cycling B cells (in words)” value in [3] was “Little inhibition of DNA synthesis”. The “basal Ca2+ (in words)” value in the data set with L3055 cells [4] (data not shown) is on record as “increase in basal Ca^2+”. Besides, in the data set on L3055 cells [4] (fluoxetine concentration range (FIG. 23)), the “levels of intracellular free Ca2+ (in words)” value is “sustained increase in the levels of intracellular free Ca^2+”. In addition, the “level of 3H-Thymidine incorporation in non-BL lines (in words)” value in data set [5] is given as “either no, or only minor reductions”. Besides, the “cell cycle status (in words)” value with L3055 cells [6] is given as “accumulation of arresting cells in the G0/G1 compartment”. Moreover, in the data set with biopsylike BL cells [7], the “PARP-1 cleavage (in words)” value is given as “extensive PARP-1 cleavage”. For the same molecule, the “% TUNEL positive” value in the data set on L3055 BL cells [8] is on record as 35.7 ± 7.6%. Besides, the “Annexin V binding MFI” value in the data set on L3055 BL cells [9] (control 3.9 ± 0.2) stood at 26.1 ± 8.4. The “Annexin V binding % positive” value with L3055 BL cells [9] (control 52.3 ± 1.8) was found to be 81.1 ± 3.9%. Moreover, the “viability of PBMC” value in [10] (5 μM) was determined as 97.3±0.88%; in data set [10] (10 μM) it was 97.3±0.33%. For the same molecule, the “reduction in levels of c-myc” value with biopsylike BL cells [11] (6 h exposure to fluoxetine) is listed as ~60%. In addition, the “reduction in levels of nm23-H2” value in the data set with biopsylike BL cells [11] (6 h exposure to fluoxetine) was ~60%. Moreover, the “decrease in the expression of nm23-H1 mRNA” value in the data set with biopsylike BL cells [11] (fluoxetine) turned out to be 75%. In addition, the “influence of pre-treatment on 5-HT-dependent inhibition of DNA synthesis (in words)” value in the data set with L3055 BL cells [12] (cells pre-treated with agent before 5-HT) was “substantially reversed”. The “effect on DNA synthesis (in words)” value in the data set on L3055 BL cells [12] (single dose, range of concentrations, [3H]-thymidine incorporation at 24 hr) is on record as “dose dependent inhibitory effect”.
